Test results: PMC3827198, “Characterisation of AmphiAmR11, an Amphioxus (Branchiostoma floridae) D2-Dopamine-Like G Protein-Coupled Receptor” (PLoS ONE, 2013)
Counter-ions that a name gives are not always drawn. Like-named read-outs stand apart in the source and are kept apart here.

Key:
AmphiAmR11 [1] = molecular target: T1, AmphiAmR11 (Branchiostoma floridae, UniProt A0PF35); experiment: Inhibition of forskolin-stimulated cAMP levels in AmphiAmR11-expressing CHO-K1 cells (agonist mode); assay type: cell-based; conditions: for Effect on forskolin-stimulated cAMP levels at 1 µM: 1 µM agonist
T1 sequence (A0PF35 entry or part of it): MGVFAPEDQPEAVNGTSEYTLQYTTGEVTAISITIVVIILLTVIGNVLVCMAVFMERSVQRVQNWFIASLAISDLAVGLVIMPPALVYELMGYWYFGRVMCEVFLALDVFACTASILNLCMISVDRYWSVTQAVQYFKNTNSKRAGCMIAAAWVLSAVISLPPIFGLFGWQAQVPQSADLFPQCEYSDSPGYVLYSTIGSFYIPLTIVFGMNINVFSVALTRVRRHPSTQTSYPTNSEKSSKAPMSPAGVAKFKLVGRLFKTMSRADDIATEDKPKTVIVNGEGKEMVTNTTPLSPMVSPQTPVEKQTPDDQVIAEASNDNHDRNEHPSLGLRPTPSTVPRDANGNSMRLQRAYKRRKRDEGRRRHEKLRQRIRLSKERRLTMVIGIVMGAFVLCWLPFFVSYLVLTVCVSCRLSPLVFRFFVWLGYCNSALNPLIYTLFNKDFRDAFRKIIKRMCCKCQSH
Protocol: CHO-K1 cells were maintained in Ham’s F-12 nutrient media (Invitrogen Life Sciences) supplemented with 10% charcoal-stripped foetal bovine serum (CS-FBS) (Hyclone, Cramlington, UK), 50 U/μg penicillin/streptomycin and 4 mM L-glutamine (Invitrogen Life Sciences) in 5% CO2 at 37°C. Stably transfected cell lines were generated by the transfection of CHO-K1 cells using Lipofectamine (Invitrogen Life Sciences) as described previously [8, 9].
cAMP levels in stably transfected CHO-K1 cells were determined as described previously [8, 9, 21], except 100 µM isobutylmethylxanthine (IBMX) was used. cAMP levels are represented as a percentage of basal samples unless otherwise stated. Student’s T-test (two-tailed and unpaired) was used to test for significance. Unless otherwise stated, all data are shown as mean ± SEM. Each data point plotted was the mean of data obtained from at least three experiments. Within each experiment three separate replicate wells were analysed for each condition and the cAMP assays on each of the wells was carried out in duplicate.
Forskolin was used both to increase basal cAMP levels to make it easier to detect increases and decreases in cAMP levels in the same experiments and also to potentiate responses to agonists to more accurately determine their threshold effects [see 22]. A non-saturating 10 µM concentration of forskolin was used.
Figure 1 Effect of biogenic amines and synthetic agonists on forskolin-stimulated cAMP levels in AmphiAmR11-expressing CHO-K1 cells. Cells were pre-incubated with 100 µM IBMX for 20 min, followed by incubation with 10 µM forskolin and 100 µM IBMX in the presence of increasing concentrations of various biogenic amines (A) or synthetic agonists (B) for a further 20 min. Data are expressed as the mean ± SEM. n ≥ 3.

AmphiAmR11 [2] = molecular target: T1, AmphiAmR11; experiment: ERK1/2 phosphorylation in AmphiAmR11-expressing CHO-K1 cells (Western blotting); assay type: cell-based; conditions: for Effect of antagonist on ERK1/2 phosphorylation in the absence of dopamine: 1 μM antagonist
AmphiAmR11 [3] = molecular target: T1, AmphiAmR11; experiment: cell-based; assay type: cell-based
AmphiAmR11 [4] = molecular target: T1, AmphiAmR11; experiment: Calcium mobilisation in AmphiAmR11-expressing CHO-K1 cells (Fura-2, percentage of responding cells per field of view); assay type: cell-based; conditions: for Calcium response at 10 nM: 10 nM biogenic amine, compared with dopamine
Protocol: Stably transfected CHO-K1 cells were assayed for changes in intracellular calcium levels using an Olympus Cell^R imaging system and the fluorescent indicator Fura-2, as described previously, with modifications described by Bayliss et al.. At 1 minute into the experiment, a buffer control was added and at 2 minutes into the experiment, the specified concentration of agonist was added. A single coverslip of cells was used per concentration of agonist and the percentage of cells that responded per field of view was calculated. The results from each coverslip gave an n of 1 and each agonist concentration was repeated at least three times on different days.
Figure 6 Effect of biogenic amines and calcium pathway inhibitors on calcium mobilisation in AmphiAmR11-expressing CHO-K1 cells. AmphiAmR11-expressing cells were exposed to increasing concentrations (A) or 10 nM (B) of biogenic amines for 3 minutes and the number of responding cells per field of view were calculated. Data are expressed as the mean ± SEM. n ≥ 3. FOV, field of view; DA, dopamine; TA, tyramine; NA, noradrenaline; Adr, adrenaline; OA, octopamine.

[5] = system: dopamine-induced ERK1/2 activation; experiment: Effect of pertussis toxin and signalling inhibitors on agonist-induced ERK1/2 activation in AmphiAmR11-expressing CHO-K1 cells; assay type: cell-based, Chinese hamster; conditions: for Effect of inhibitor on dopamine-induced ERK1/2 phosphorylation: 10 µM inhibitor, 5 minutes
Protocol: Phospho-extracellular signal-related kinase (Phospho-ERK) levels were determined essentially as described previously. Minor modifications have been described. ERK1/2 phosphorylation levels were quantified by densitometry. The developed films were scanned in and analysed using the software program, Aida. The data generated by Aida was then processed using Microsoft Excel. Values for the kinase expression and activity levels were defined as 100% in the control samples. Student’s T-test (two-tailed and unpaired) was used to test for significance.
Figure 5 Effect of pertussis toxin and signalling inhibitors on dopamine-induced ERK1/2 activation in AmphiAmR11-expressing CHO-K1 cells. For the pertussis toxin experiment, AmphiAmR11-expressing CHO-K1 cells were pre-incubated with pertussis toxin (200 ng/ml) for 16 hours prior to serum-starvation for 2 hours in the absence of the toxin. Cells were then stimulated for 5 mins with 10 nM dopamine (open bar) or F-12 Hams control (black bar). For all other inhibitors, AmphiAmR11-expressing CHO-K1 cells were serum starved for 2 hours including incubation with 10 µM inhibitor or F-12 Hams control for the final 20 (AG1296 and AG1478) or 30 (PP2, LY294002, Ro31-8220, U0126, U73122 and U73343) minutes. Cells were then stimulated for 5 minutes with 10 nM dopamine […] in the presence of the inhibitor. Basal measurement in the absence of dopamine and inhibitor (first black bar) and the dopamine-only response in the absence of inhibitor (first open bar) are shown. (A) Representative blots from three or four independent experiments. […] Data are expressed as the mean + SEM. n = 3 - 4. DA, dopamine; PTX, pertussis toxin; Ro, Ro 31-8220; LY, LY294002.
Figure S3. Time courses for the effect of dopamine and tyramine on ERK1/2 phosphorylation in AmphiAmR11-expressing CHO-K1 cells. (A and B) AmphiAmR11-expressing CHO-K1 cells were serum-starved for 2 hours, prior to stimulation with tyramine or dopamine at the specified concentration for the specified length of time. Equal quantities of cell lysates were separated by SDS-PAGE and analysed for pERK or tERK by Western blotting. (C and D): AmphiAmR11-expressing CHO-K1 cells were incubated with pertussis toxin (200 ng/mL) for 16 hours followed by stimulation as described for Figures A and B. (A to D) Representative blot for each condition from three to four independent experiments. (E) Summary of the quantified blots. Data are expressed as the mean ± SEM. n = 3-4. PTX, pertussis toxin; Min, minutes.

AmphiAmR11 [6] = molecular target: T1, AmphiAmR11; experiment: Block of tyramine-induced inhibition of forskolin-stimulated cAMP levels in AmphiAmR11-expressing CHO-K1 cells; assay type: cell-based; conditions: 30 nM tyramine
AmphiAmR11 [7] = molecular target: T1, AmphiAmR11; experiment: Block of dopamine-induced ERK1/2 activation in AmphiAmR11-expressing CHO-K1 cells by antagonists; assay type: cell-based; conditions: 1 µM antagonist, 10 nM dopamine, 5 min
[8] = 10 µM forskolin, 100 µM IBMX, 20 min, full concentration response curves, read-out: EC50 for decrease in forskolin-stimulated cAMP levels
[9] = 1 µM synthetic agonist, 5 min, dopamine as reference
[10] = 10 µM forskolin, 100 µM IBMX, 20 min
[11] = amines at 100 µM, pertussis toxin 200 ng/mL, 16 hours
[12] = 1 μM antagonist, 10 µM forskolin

Molecule: Br.C=CCN1CCc2c(cc(O)c(O)c2Cl)C(c2ccccc2)C1 (racemic) [6-Chloro-APB, (±)-6-chloro-7,8-dihydroxy-3-allyl-1-phenyl-2,3,4,5-tetrahydro-^1H-3-benzazepine hydrobromide]
- EC50 (AmphiAmR11 [1]; [8]): 2230 nM
- Effect on ERK1/2 phosphorylation at 1 µM (AmphiAmR11 [2]; [9]): less effective than naphazoline, UK14,304 and quinpirole

Molecule: CC(C)NCC(O)c1ccc(O)c(O)c1 (racemic) [isoproterenol, (±)-isoproterenol hydrochloride]
- Effect on forskolin-stimulated cAMP levels at 1 µM (AmphiAmR11 [1]; [10]): little or no effect
- Effect on ERK1/2 phosphorylation at 1 µM (AmphiAmR11 [2]; [9]): little or no effect

Molecule: NCC(O)c1ccc(O)cc1 (racemic) [octopamine, (±)-p-octopamine hydrochloride]
- EC50 (AmphiAmR11 [1]; [8]): 1300 nM
- Effect on forskolin-stimulated cAMP levels following pertussis toxin treatment (AmphiAmR11 [3]; [11]): did not induce an increase
- Effect on ERK1/2 phosphorylation at 10 nM (AmphiAmR11 [2]; 10 nM biogenic amine, 5 min): not able to increase
- Calcium response at 10 nM (AmphiAmR11 [4]): less effective than dopamine

Molecule: CC(N)c1ccccc1 (racemic) [phenylethylamine, (±)-1-phenylethylamine]
- EC50 (AmphiAmR11 [1]; [8]): 16.5 nM
- Concentrations coupling AmphiAmR11 to an increase in cAMP levels (AmphiAmR11 [3]; after pertussis toxin): above 1 µM
- Effect on forskolin-stimulated cAMP levels following pertussis toxin treatment (AmphiAmR11 [3]; [11]): increase in forskolin-stimulated cAMP levels
- Concentration dependence of increase in forskolin-stimulated cAMP levels following pertussis toxin (AmphiAmR11 [3]; pertussis toxin 200 ng/mL, 16 h, up to 100 µM): concentration-dependent effects
- EC50 (AmphiAmR11 [2]; 5 min stimulation, read-out: EC50 for inducing ERK1/2 phosphorylation): 57.8 nM

Molecule: CNCC(O)c1ccc(O)cc1 (racemic) [synephrine, (±)-synephrine]
- EC50 (AmphiAmR11 [1]): 1650 nM
- Effect on forskolin-stimulated cAMP levels following pertussis toxin treatment (AmphiAmR11 [3]; [11]): did not induce an increase
- Effect on ERK1/2 phosphorylation at 10 nM (AmphiAmR11 [2]; 10 nM biogenic amine, 5 min): not able to increase

Molecule: COc1cc2ncc(-c3ccccc3)nc2cc1OC [AG1296, tyrphostin AG1296]
- Effect of inhibitor on dopamine-induced ERK1/2 phosphorylation ([5]; 10 nM dopamine): neither inhibitor had a significant effect

Molecule: COc1cc2ncnc(Nc3cccc(Cl)c3)c2cc1OC [AG1478, tyrphostin AG 1478]
- Effect of inhibitor on dopamine-induced ERK1/2 phosphorylation ([5]; 10 nM dopamine): neither inhibitor had a significant effect

Molecule: CC(C)(C)n1nc(-c2ccc(Cl)cc2)c2c(N)ncnc21 [PP2, 3-(4-chlorophenyl) 1-(1,1-dimethylethyl)-1H-pyrazolo[3,4-d]pyrimidin-4-amine]
- Effect of inhibitor on dopamine-induced ERK1/2 phosphorylation ([5]; 10 nM dopamine): no effect

Molecule: Cn1cc(C2=C(c3cn(CCCSC(=N)N)c4ccccc34)C(=O)NC2=O)c2ccccc21 [Ro 31-8220]
- Effect of inhibitor on dopamine-induced ERK1/2 phosphorylation ([5]; 10 nM dopamine): near basal levels

Molecule: Oc1cc2c(cc1O)[C@@H](c1ccccc1)CNCC2 [SKF38393, R(+)-1-phenyl-2,3,4,5-tetrahydro-(^1H)-3-benzazepine-7,8-diol]
- EC50 (AmphiAmR11 [1]; [8]): 792 nM
- Effect on ERK1/2 phosphorylation at 1 µM (AmphiAmR11 [2]; [9]): less effective than naphazoline, UK14,304 and quinpirole

Molecule: N#CC(=C(N)Sc1ccccc1N)C(C#N)=C(N)Sc1ccccc1N [U0126, 1,4-Diamino-2,3-dicyano-1,4-bis(o-aminophenylmercapto)butadiene]
- Effect of inhibitor on dopamine-induced ERK1/2 phosphorylation ([5]; 10 nM dopamine): abolished

Molecule: Brc1c(NC2=NCCN2)ccc2nccnc12 [UK14,304, UK14304]
- EC50 (AmphiAmR11 [1]): 350 nM
- Effect on ERK1/2 phosphorylation at 1 µM (AmphiAmR11 [2]; [9]): most effective of the synthetic agonists

Molecule: COc1cccc(OC)c1OCCNCC1COc2ccccc2O1 (stereo not drawn) [WB4101]
- Decrease of forskolin-stimulated cAMP levels by antagonist in the absence of agonist (AmphiAmR11 [1]; [12]): could inhibit forskolin-stimulated cAMP levels
- EC50 (AmphiAmR11 [1]; [8]): 32 nM
- Agonist type at AmphiAmR11 (full or partial) (AmphiAmR11 [1]; cAMP assay): partial agonist
- Inhibition of forskolin-stimulated cAMP levels (maximal) (AmphiAmR11 [1]; concentration-response curves, absence of other agonist): approximately 75%
- Blocking effect on tyramine-induced response at reduced antagonist concentrations (AmphiAmR11 [6]; varying concentrations of antagonist): small blocking effect
- Effect of antagonist on ERK1/2 phosphorylation in the absence of dopamine (AmphiAmR11 [2]): increase in ERK1/2 phosphorylation
- Block of dopamine-induced ERK1/2 activation (AmphiAmR11 [7]): partial effect

Molecule: CNC[C@H](O)c1ccc(O)c(O)c1 [adrenaline, (-)-adrenaline]
- EC50 (AmphiAmR11 [1]): 1340 nM
- Concentration dependence of increase in forskolin-stimulated cAMP levels following pertussis toxin (AmphiAmR11 [3]): concentration-dependent effects
- Concentrations coupling AmphiAmR11 to an increase in cAMP levels (AmphiAmR11 [3]): above 1 µM
- Effect on forskolin-stimulated cAMP levels following pertussis toxin treatment (AmphiAmR11 [3]): increase in forskolin-stimulated cAMP levels
- Effect on ERK1/2 phosphorylation at 10 nM (AmphiAmR11 [2]): not able to increase
- Calcium response at 10 nM (AmphiAmR11 [4]): less effective than dopamine

Molecule: Clc1cccc(Cl)c1N=C1NCCN1 [clonidine, clonidine hydrochloride]
- EC50 (AmphiAmR11 [1]): 623 nM
- Effect on ERK1/2 phosphorylation at 1 µM (AmphiAmR11 [2]): less effective than naphazoline, UK14,304 and quinpirole

Molecule: NCCc1ccc(O)c(O)c1 [dopamine, dopamine hydrochloride]
- EC50 (AmphiAmR11 [1]): 16.7 nM
- EC50 (AmphiAmR11 [3]): 470 nM
- Concentrations coupling AmphiAmR11 to an increase in cAMP levels (AmphiAmR11 [3]; after pertussis toxin): less than 1 µM
- Effect on forskolin-stimulated cAMP levels following pertussis toxin treatment (AmphiAmR11 [3]; [11]): increase in forskolin-stimulated cAMP levels
- EC50 (AmphiAmR11 [2]): 1.27 nM
- Duration of ERK1/2 phosphorylation response after the peak (AmphiAmR11 [2]; 1 µM tyramine (level by 30 minutes) or 30 nM dopamine): more sustained ERK1/2 phosphorylation response
- Time of peak ERK1/2 phosphorylation (AmphiAmR11 [2]; 1 µM tyramine or 30 nM dopamine): approximately 5 minutes
- Fold more potent than tyramine in MAPK assay (AmphiAmR11 [2]; ratio of EC50 values): 10 fold
- EC50 (AmphiAmR11 [4]): 1.68 nM
- Fold more potent than tyramine in calcium assay (AmphiAmR11 [4]; ratio of EC50 values): approximately 450 fold

Molecule: NCCc1c[nH]cn1 [histamine, histamine dihydrochloride]
- Effect on forskolin-stimulated cAMP levels at 1 µM (AmphiAmR11 [1]; [10]): no effect
- Effect on ERK1/2 phosphorylation at 10 nM (AmphiAmR11 [2]; 10 nM biogenic amine, 5 min): not able to increase

Molecule: CCN(CC)CCNC(=O)c1cc(Cl)c(N)cc1OC [metoclopramide, metoclopramide hydrochloride]
- Block of tyramine-induced inhibition of forskolin-stimulated cAMP levels (AmphiAmR11 [6]; [12]): no significant blocking effect
- Effect of antagonist on ERK1/2 phosphorylation in the absence of dopamine (AmphiAmR11 [2]): did not exhibit any agonistic properties
- Block of dopamine-induced ERK1/2 activation (AmphiAmR11 [7]): no significant effect

Molecule: CNC[C@H](O)c1cccc(O)c1 [phenylephrine, (R)-(-)-phenylephrine hydrochloride]
- Effect on forskolin-stimulated cAMP levels at 1 µM (AmphiAmR11 [1]; [10]): little or no effect
- Effect on ERK1/2 phosphorylation at 1 µM (AmphiAmR11 [2]; [9]): little or no effect

Molecule: pertussis toxin
- Effect of pertussis toxin treatment on amine-mediated decreases in forskolin-stimulated cAMP levels (AmphiAmR11 [3]; pertussis toxin 200 ng/mL, 16 hours): inhibit the amine-mediated decreases
- Effect of pertussis toxin on tyramine- and dopamine-induced ERK1/2 phosphorylation at multiple time points ([5]; pertussis toxin 200 ng/mL, 16 hours, 1 µM tyramine, 30 nM dopamine): abolished
- Effect of pertussis toxin on ERK1/2 response at 5 minutes of dopamine stimulation ([5]; pertussis toxin 200 ng/ml, 16 hours, 10 nM dopamine): abolished
